Experiments:
[1] = tested on: bcl-2 G-quadruplex DNA (DNA, G4) CGGGCGCGGGAGGAAGGGGGCGGGAGC; test: CD melting at 280 nm; details: 100 mM KCl; 10 mM Tris-HCl, pH 7.4; 10 μM complex, 100 μM DNA
[2] = tested on: bcl-2 G-quadruplex DNA (DNA, G4) CGGGCGCGGGAGGAAGGGGGCGGGAGC; test: UV-vis absorption titration; details: 100 mM KCl; 10 mM Tris-HCl, pH 7.4; 20 μM complex; intrinsic binding constant

ΔTm [1]: 4.2 °C
K [2]: ~ 2.94 × 10^6 M^-1
Compound: Clc1ccc(-c2nc3c4cccnc4c4ncccc4c3[nH]2)cc1.[Cl-].[Ru+2].c1ccccc1

Source: article PMC5503023 (2016)
